# Laboratory results from paper PMC6409085, “Three odorant-binding proteins are involved in the behavioral response of Sogatella furcifera to rice plant volatiles” (PeerJ, 2019).
# pIC50: −log10 of the molar value. “And” between values parts separate entries of the source, which are not always exact repeats. Equal values may be shown once.
# Key:
# Assay in all cases: biochemical
# Format in all cases: binding
# SfurOBP1 = SfurOBP1 (Sogatella furcifera, UniProt V5T8N5); settings: for Fluorescence competitive binding assay, fluorescence intensity: OBP1, three replicate columns
# SfurOBP1, sequence (V5T8N5 entry or part of it): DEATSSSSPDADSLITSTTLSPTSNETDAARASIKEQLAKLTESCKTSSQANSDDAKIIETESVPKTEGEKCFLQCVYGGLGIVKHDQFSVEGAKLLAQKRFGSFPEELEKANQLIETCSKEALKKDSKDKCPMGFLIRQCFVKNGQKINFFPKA
# Outline: (§1)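 K1-NPN came from titrating 2.0 µM protein (50 mM Tris-HCl, pH 7.4) with 1-NPN. Odorants at 2-20 µM then competed against 2.0 µM protein plus 2.0 µM 1-NPN for 2 min, with excitation at 337 nm and emission recorded over 390-490 nm. IC50 values were converted to Ki via Ki = IC50/(1 + [1-NPN]/K1-NPN).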
# SfurOBP11 = SfurOBP11 (Sogatella furcifera, UniProt V5T6E3)
# SfurOBP11, sequence (V5T6E3 entry or part of it): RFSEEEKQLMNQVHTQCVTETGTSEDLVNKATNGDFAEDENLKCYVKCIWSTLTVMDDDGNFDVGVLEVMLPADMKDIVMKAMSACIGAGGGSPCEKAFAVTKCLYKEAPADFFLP
# Outline: as §1
# SfurOBP2 = SfurOBP2 (Sogatella furcifera, UniProt V5T759)
# SfurOBP2, sequence (V5T759 entry or part of it): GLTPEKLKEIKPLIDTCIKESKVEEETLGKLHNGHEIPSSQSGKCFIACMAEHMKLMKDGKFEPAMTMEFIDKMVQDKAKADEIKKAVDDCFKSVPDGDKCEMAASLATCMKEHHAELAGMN
# Outline: as §1
# SfurOBP3 = SfurOBP3 (Sogatella furcifera, UniProt V5T818); settings: for Fluorescence competitive binding assay, fluorescence intensity: OBP3, three replicate columns
# SfurOBP3, sequence (V5T818 entry or part of it): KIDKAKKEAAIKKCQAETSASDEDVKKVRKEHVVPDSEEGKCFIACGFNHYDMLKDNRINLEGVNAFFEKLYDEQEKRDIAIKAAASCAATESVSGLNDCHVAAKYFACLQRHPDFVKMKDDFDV
# Outline: as §1
smiles,measurement,setting,value
CCCCCCCCCCCCO [lauryl alcohol],"Fluorescence competitive binding assay, fluorescence intensity",SfurOBP1; ligand concentration 2 (μM),7624 and 6465 and 8545
same,"Fluorescence competitive binding assay, fluorescence intensity",SfurOBP1; ligand concentration 4 (μM),7313 and 7318 and 7353
same,"Fluorescence competitive binding assay, fluorescence intensity",SfurOBP1; ligand concentration 6 (μM),7143 and 7275 and 7922
same,"Fluorescence competitive binding assay, fluorescence intensity",SfurOBP1; ligand concentration 8 (μM),7358 and 7784 and 8873
same,"Fluorescence competitive binding assay, fluorescence intensity",SfurOBP1; ligand concentration 10 (μM),7141 and 7560 and 7926
same,"Fluorescence competitive binding assay, fluorescence intensity",SfurOBP1; ligand concentration 12 (μM),7810 and 7463 and 8566
same,"Fluorescence competitive binding assay, fluorescence intensity",SfurOBP1; ligand concentration 14 (μM),7736 and 8413 and 7236
same,"Fluorescence competitive binding assay, fluorescence intensity",SfurOBP1; ligand concentration 16 (μM),8777 and 6935 and 7055
same,"Fluorescence competitive binding assay, fluorescence intensity",SfurOBP1; ligand concentration 18 (μM),9193 and 9578 and 9152
same,"Fluorescence competitive binding assay, fluorescence intensity",SfurOBP1; ligand concentration 20 (μM),11048 and 9816 and 8594
same,pIC50,"SfurOBP1; SfurOBP1, protein and 1-NPN both 2.0 µM, competitor 2-20 µM, read-out: IC50",< 4.70
same,pIC50,"SfurOBP11; SfurOBP11, protein and 1-NPN both 2.0 µM, competitor 2-20 µM, read-out: IC50",< 4.70
same,"Fluorescence intensity, fluorescence competitive binding assay, OBP11","SfurOBP11; ligand concentration 2, replicate 1",24217
same,"Fluorescence intensity, fluorescence competitive binding assay, OBP11","SfurOBP11; ligand concentration 2, replicate 2",24290
same,"Fluorescence intensity, fluorescence competitive binding assay, OBP11","SfurOBP11; ligand concentration 2, replicate 3",24783
same,"Fluorescence intensity, fluorescence competitive binding assay, OBP11","SfurOBP11; ligand concentration 4, replicate 1",24290
same,"Fluorescence intensity, fluorescence competitive binding assay, OBP11","SfurOBP11; ligand concentration 4, replicate 2",24322
same,"Fluorescence intensity, fluorescence competitive binding assay, OBP11","SfurOBP11; ligand concentration 4, replicate 3",23442
same,"Fluorescence intensity, fluorescence competitive binding assay, OBP11","SfurOBP11; ligand concentration 6, replicate 1",24952
same,"Fluorescence intensity, fluorescence competitive binding assay, OBP11","SfurOBP11; ligand concentration 6, replicate 2",22901
same,"Fluorescence intensity, fluorescence competitive binding assay, OBP11","SfurOBP11; ligand concentration 6, replicate 3",24534
same,"Fluorescence intensity, fluorescence competitive binding assay, OBP11","SfurOBP11; ligand concentration 8, replicate 1",24078
same,"Fluorescence intensity, fluorescence competitive binding assay, OBP11","SfurOBP11; ligand concentration 8, replicate 2",21947
same,"Fluorescence intensity, fluorescence competitive binding assay, OBP11","SfurOBP11; ligand concentration 8, replicate 3",24599
same,"Fluorescence intensity, fluorescence competitive binding assay, OBP11","SfurOBP11; ligand concentration 10, replicate 1",22957
same,"Fluorescence intensity, fluorescence competitive binding assay, OBP11","SfurOBP11; ligand concentration 10, replicate 2",24005
same,"Fluorescence intensity, fluorescence competitive binding assay, OBP11","SfurOBP11; ligand concentration 10, replicate 3",23087
same,"Fluorescence intensity, fluorescence competitive binding assay, OBP11","SfurOBP11; ligand concentration 12, replicate 1",20961
same,"Fluorescence intensity, fluorescence competitive binding assay, OBP11","SfurOBP11; ligand concentration 12, replicate 2",21769
same,"Fluorescence intensity, fluorescence competitive binding assay, OBP11","SfurOBP11; ligand concentration 12, replicate 3",22579
same,"Fluorescence intensity, fluorescence competitive binding assay, OBP11","SfurOBP11; ligand concentration 14, replicate 1",19736
same,"Fluorescence intensity, fluorescence competitive binding assay, OBP11","SfurOBP11; ligand concentration 14, replicate 2",20687
same,"Fluorescence intensity, fluorescence competitive binding assay, OBP11","SfurOBP11; ligand concentration 14, replicate 3",20422
same,"Fluorescence intensity, fluorescence competitive binding assay, OBP11","SfurOBP11; ligand concentration 16, replicate 1",16888
same,"Fluorescence intensity, fluorescence competitive binding assay, OBP11","SfurOBP11; ligand concentration 16, replicate 2",20499
same,"Fluorescence intensity, fluorescence competitive binding assay, OBP11","SfurOBP11; ligand concentration 16, replicate 3",18999
same,"Fluorescence intensity, fluorescence competitive binding assay, OBP11","SfurOBP11; ligand concentration 18, replicate 1",18870
same,"Fluorescence intensity, fluorescence competitive binding assay, OBP11","SfurOBP11; ligand concentration 18, replicate 2",19005
same,"Fluorescence intensity, fluorescence competitive binding assay, OBP11","SfurOBP11; ligand concentration 18, replicate 3",19199
same,"Fluorescence intensity, fluorescence competitive binding assay, OBP11","SfurOBP11; ligand concentration 20, replicate 1",20952
same,"Fluorescence intensity, fluorescence competitive binding assay, OBP11","SfurOBP11; ligand concentration 20, replicate 2",19127
same,"Fluorescence intensity, fluorescence competitive binding assay, OBP11","SfurOBP11; ligand concentration 20, replicate 3",18042
same,pIC50,"SfurOBP2; SfurOBP2, protein and 1-NPN both 2.0 µM, competitor 2-20 µM, read-out: IC50",< 4.70
same,"Fluorescence competitive binding assay, OBP2 (raw fluorescence reading)","SfurOBP2; ligand concentration 2 (unit not given), replicate column 1 of 3",17977
same,"Fluorescence competitive binding assay, OBP2 (raw fluorescence reading)","SfurOBP2; ligand concentration 2 (unit not given), replicate column 2 of 3",18256
same,"Fluorescence competitive binding assay, OBP2 (raw fluorescence reading)","SfurOBP2; ligand concentration 2 (unit not given), replicate column 3 of 3",18222
same,"Fluorescence competitive binding assay, OBP2 (raw fluorescence reading)","SfurOBP2; ligand concentration 4 (unit not given), replicate column 1 of 3",21586
same,"Fluorescence competitive binding assay, OBP2 (raw fluorescence reading)","SfurOBP2; ligand concentration 4 (unit not given), replicate column 2 of 3",19639
same,"Fluorescence competitive binding assay, OBP2 (raw fluorescence reading)","SfurOBP2; ligand concentration 4 (unit not given), replicate column 3 of 3",16260
same,"Fluorescence competitive binding assay, OBP2 (raw fluorescence reading)","SfurOBP2; ligand concentration 6 (unit not given), replicate column 1 of 3",18208
same,"Fluorescence competitive binding assay, OBP2 (raw fluorescence reading)","SfurOBP2; ligand concentration 6 (unit not given), replicate column 2 of 3",18064
same,"Fluorescence competitive binding assay, OBP2 (raw fluorescence reading)","SfurOBP2; ligand concentration 6 (unit not given), replicate column 3 of 3",15812
same,"Fluorescence competitive binding assay, OBP2 (raw fluorescence reading)","SfurOBP2; ligand concentration 8 (unit not given), replicate column 1 of 3",16946
same,"Fluorescence competitive binding assay, OBP2 (raw fluorescence reading)","SfurOBP2; ligand concentration 8 (unit not given), replicate column 2 of 3",12445
same,"Fluorescence competitive binding assay, OBP2 (raw fluorescence reading)","SfurOBP2; ligand concentration 8 (unit not given), replicate column 3 of 3",14953
same,"Fluorescence competitive binding assay, OBP2 (raw fluorescence reading)","SfurOBP2; ligand concentration 10 (unit not given), replicate column 1 of 3",16387
same,"Fluorescence competitive binding assay, OBP2 (raw fluorescence reading)","SfurOBP2; ligand concentration 10 (unit not given), replicate column 2 of 3",15939
same,"Fluorescence competitive binding assay, OBP2 (raw fluorescence reading)","SfurOBP2; ligand concentration 10 (unit not given), replicate column 3 of 3",15218
same,"Fluorescence competitive binding assay, OBP2 (raw fluorescence reading)","SfurOBP2; ligand concentration 12 (unit not given), replicate column 1 of 3",16171
same,"Fluorescence competitive binding assay, OBP2 (raw fluorescence reading)","SfurOBP2; ligand concentration 12 (unit not given), replicate column 2 of 3",15043
same,"Fluorescence competitive binding assay, OBP2 (raw fluorescence reading)","SfurOBP2; ligand concentration 12 (unit not given), replicate column 3 of 3",14391
same,"Fluorescence competitive binding assay, OBP2 (raw fluorescence reading)","SfurOBP2; ligand concentration 14 (unit not given), replicate column 1 of 3",14286
same,"Fluorescence competitive binding assay, OBP2 (raw fluorescence reading)","SfurOBP2; ligand concentration 14 (unit not given), replicate column 2 of 3",13952
same,"Fluorescence competitive binding assay, OBP2 (raw fluorescence reading)","SfurOBP2; ligand concentration 14 (unit not given), replicate column 3 of 3",14683
same,"Fluorescence competitive binding assay, OBP2 (raw fluorescence reading)","SfurOBP2; ligand concentration 16 (unit not given), replicate column 1 of 3",13014
same,"Fluorescence competitive binding assay, OBP2 (raw fluorescence reading)","SfurOBP2; ligand concentration 16 (unit not given), replicate column 2 of 3",12749
same,"Fluorescence competitive binding assay, OBP2 (raw fluorescence reading)","SfurOBP2; ligand concentration 16 (unit not given), replicate column 3 of 3",13096
same,"Fluorescence competitive binding assay, OBP2 (raw fluorescence reading)","SfurOBP2; ligand concentration 18 (unit not given), replicate column 1 of 3",12746
same,"Fluorescence competitive binding assay, OBP2 (raw fluorescence reading)","SfurOBP2; ligand concentration 18 (unit not given), replicate column 2 of 3",12759
same,"Fluorescence competitive binding assay, OBP2 (raw fluorescence reading)","SfurOBP2; ligand concentration 18 (unit not given), replicate column 3 of 3",12788
same,"Fluorescence competitive binding assay, OBP2 (raw fluorescence reading)","SfurOBP2; ligand concentration 20 (unit not given), replicate column 1 of 3",13087
same,"Fluorescence competitive binding assay, OBP2 (raw fluorescence reading)","SfurOBP2; ligand concentration 20 (unit not given), replicate column 2 of 3",12766
same,"Fluorescence competitive binding assay, OBP2 (raw fluorescence reading)","SfurOBP2; ligand concentration 20 (unit not given), replicate column 3 of 3",13106
same,"Fluorescence competitive binding assay, fluorescence intensity",SfurOBP3; ligand concentration 2,67563 and 64113 and 67485
same,"Fluorescence competitive binding assay, fluorescence intensity",SfurOBP3; ligand concentration 4,70812 and 72838 and 74184
same,"Fluorescence competitive binding assay, fluorescence intensity",SfurOBP3; ligand concentration 6,65634 and 64114 and 68940
same,"Fluorescence competitive binding assay, fluorescence intensity",SfurOBP3; ligand concentration 8,62878 and 67093 and 68072
same,"Fluorescence competitive binding assay, fluorescence intensity",SfurOBP3; ligand concentration 10,60134 and 69541 and 65795
same,"Fluorescence competitive binding assay, fluorescence intensity",SfurOBP3; ligand concentration 12,68479 and 64625 and 78735
same,"Fluorescence competitive binding assay, fluorescence intensity",SfurOBP3; ligand concentration 14,60140 and 40039 and 67409
same,"Fluorescence competitive binding assay, fluorescence intensity",SfurOBP3; ligand concentration 16,38861 and 39269 and 45097
same,"Fluorescence competitive binding assay, fluorescence intensity",SfurOBP3; ligand concentration 18,51398 and 59369 and 52474
same,"Fluorescence competitive binding assay, fluorescence intensity",SfurOBP3; ligand concentration 20,68555 and 48789 and 43446
same,pIC50,"SfurOBP3; SfurOBP3, protein and 1-NPN both 2.0 µM, competitor 2-20 µM, read-out: IC50",< 4.70
